pIC50: −log10 of the molar value. Calls of active or inactive are those of the source. The calls are words filed in the database; no cut-off is given here.
Legend:
[1] = tested on: HepG2; assay: Antioxidant activity in human HepG2 cells assessed as reduction of H2O2-induced ROS level at 10 uM pretreated for 20 hrs followed by H2O2 stimulation for 30 mins by DCF-DA-based fluorescence analysis relative to control; type: functional; parameters: scale not given: the % may be the effect or the level left
[2] = tested on: Mus musculus; assay: Antiinflammatory activity in BALB/c mouse paw edema model assessed as decrease in myeloperoxidase activity in paw exudates at 20 mg/kg, po administered 30 mins prior to carrageenan challenge measured after 4 hrs by microplate reader analysis relative to control; type: functional; parameters: scale not given: the % may be the effect or the level left
[3] = tested on: Mus musculus; assay: Antiinflammatory activity in carrageenan-induced BALB/c mouse paw edema model assessed as decrease in paw volume administered orally 30 mins prior to carrageenan challenge measured after 1 to 6 hrs by plethysmometric analysis; type: functional, organism-based
[4] = tested on: Mus musculus; assay: Antiinflammatory activity in carrageenan-induced BALB/c mouse paw edema model assessed as decrease in paw volume at 20 mg/kg, po administered 30 mins prior to carrageenan challenge measured after 6 hrs by plethysmometric analysis relative to control; type: functional; parameters: scale not given: the % may be the effect or the level left
[5] = Antioxidant activity assessed as DPPH free radical scavenging activity at 0.06 to 200 uM after 30 mins by spectrophotometric analysis; type: physicochemical; conditions: 0.5 h
[6] = tested on: Mus musculus; assay: Antiinflammatory activity in BALB/c mouse paw edema model assessed as decrease in myeloperoxidase activity in paw exudates at 10 mg/kg, po administered 30 mins prior to carrageenan challenge measured after 4 hrs by microplate reader analysis relative to control; type: functional; parameters: scale not given: the % may be the effect or the level left
[7] = biological target: T1, Prostaglandin G/H synthase 2 (Homo sapiens, UniProt P35354); assay: Inhibition of human recombinant COX-2 using arachidonic acid as substrate assessed as PGE2 production preincubated for 10 mins followed by substrate addition incubated for 2 mins by ELISA
T1 sequence (P35354 whole entry): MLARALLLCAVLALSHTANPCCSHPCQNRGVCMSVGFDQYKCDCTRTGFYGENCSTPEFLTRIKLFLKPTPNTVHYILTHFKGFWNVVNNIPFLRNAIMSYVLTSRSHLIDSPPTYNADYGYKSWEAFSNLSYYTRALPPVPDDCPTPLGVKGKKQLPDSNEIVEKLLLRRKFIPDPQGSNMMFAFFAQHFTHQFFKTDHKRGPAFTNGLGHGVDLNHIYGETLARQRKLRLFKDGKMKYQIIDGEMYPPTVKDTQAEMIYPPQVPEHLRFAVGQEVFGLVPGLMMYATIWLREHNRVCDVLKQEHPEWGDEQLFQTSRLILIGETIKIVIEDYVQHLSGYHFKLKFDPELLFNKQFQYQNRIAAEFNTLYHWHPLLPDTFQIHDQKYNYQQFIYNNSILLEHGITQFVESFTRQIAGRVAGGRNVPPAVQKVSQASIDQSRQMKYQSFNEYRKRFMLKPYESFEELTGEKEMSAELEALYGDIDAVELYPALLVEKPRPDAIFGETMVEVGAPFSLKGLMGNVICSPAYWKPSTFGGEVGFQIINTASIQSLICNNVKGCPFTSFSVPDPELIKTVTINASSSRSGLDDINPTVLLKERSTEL

[8] = tested on: HepG2; assay: Cytotoxicity against human HepG2 cells at 2.5 to 10 uM by MTT assay; type: cell-based; conditions: hepg2, 10 µM
[9] = tested on: Mus musculus; assay: Antiinflammatory activity in carrageenan-induced BALB/c mouse peritonitis model assessed as decrease in number of leukocytes in peritoneal exudates administered via oral gavage 30 mins prior to carrageenan challenge measured after 4 hrs; type: functional, organism-based
[10] = tested on: Mus musculus; assay: Antiinflammatory activity in carrageenan-induced BALB/c mouse peritonitis model assessed as decrease in nitric oxide level in peritoneal exudates at 10 to 20 mg/kg administered via oral gavage 30 mins prior to carrageenan challenge measured after 4 hrs by Griess method; type: functional, organism-based
[11] = biological target: T2, Prostaglandin G/H synthase 1 (Ovis aries, UniProt P05979); assay: Inhibition of ovine COX-1 using arachidonic acid as substrate assessed as PGE2 production preincubated for 10 mins followed by substrate addition incubated for 2 mins by ELISA
T2 sequence (P05979 whole entry): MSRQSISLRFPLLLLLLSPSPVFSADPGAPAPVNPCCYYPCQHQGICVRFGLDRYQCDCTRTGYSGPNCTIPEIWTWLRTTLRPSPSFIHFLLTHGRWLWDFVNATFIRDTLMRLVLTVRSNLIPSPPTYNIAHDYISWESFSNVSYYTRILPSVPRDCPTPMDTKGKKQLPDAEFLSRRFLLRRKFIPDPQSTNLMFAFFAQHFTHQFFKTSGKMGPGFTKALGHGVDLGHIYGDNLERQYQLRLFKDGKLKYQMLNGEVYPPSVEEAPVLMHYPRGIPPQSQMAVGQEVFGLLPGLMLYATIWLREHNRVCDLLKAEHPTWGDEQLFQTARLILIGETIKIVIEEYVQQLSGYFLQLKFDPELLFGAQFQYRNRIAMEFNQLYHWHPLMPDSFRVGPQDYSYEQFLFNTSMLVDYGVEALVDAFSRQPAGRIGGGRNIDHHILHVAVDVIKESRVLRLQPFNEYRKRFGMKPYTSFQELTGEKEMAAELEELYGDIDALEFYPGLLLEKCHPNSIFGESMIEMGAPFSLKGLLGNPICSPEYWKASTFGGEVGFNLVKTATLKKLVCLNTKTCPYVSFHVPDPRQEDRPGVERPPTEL

[12] = Selectivity index ratio of IC50 for ovine COX-1 to IC50 for human recombinant COX-2
[13] = tested on: Mus musculus; assay: Antiinflammatory activity in carrageenan-induced BALB/c mouse paw edema model assessed as decrease in paw volume at 10 mg/kg, po administered 30 mins prior to carrageenan challenge measured after 6 hrs by plethysmometric analysis relative to control; type: functional; parameters: scale not given: the % may be the effect or the level left
[14] = tested on: Mus musculus; assay: Antiinflammatory activity in carrageenan-induced BALB/c mouse peritonitis model assessed as decrease in number of leukocytes in peritoneal exudates at 10 to 20 mg/kg administered via oral gavage 30 mins prior to carrageenan challenge measured after 4 hrs; type: functional, organism-based
[15] = Antioxidant activity assessed as DPPH free radical scavenging activity at 200 uM after 30 mins by spectrophotometric analysis; type: physicochemical; conditions: 0.5 h

Compound	Activity [1]	Activity [2]	Activity [3]	Activity [4]	Activity [5]	Activity [6]	pIC50 [7]	Activity [8]	Activity [9]	Activity [10]	pIC50 [11]	Ratio IC50 [12]	Activity [13]	Activity [14]	Activity [15]
COC(=O)c1cc(/C=C/c2cc(O)cc(O)c2)ccc1O	33%	60%	Dose-dependent effect	74%	Active	60%	6.00	Non-toxic	Dose-dependent effect	inactive	5.39	4.1	59%		
Oc1ccc(/C=C/c2cc(O)cc(O)c2)cc1 [RESVERATROL]	25%	53%	Dose-dependent effect	52%	Active			Non-toxic		inactive			34%	Active	
O=C(O)c1cc(/C=C/c2ccc(O)cc2)ccc1O							< 3.30				3.38				Active
O=C(O)c1cc(/C=C/c2cc(O)cc(O)c2)ccc1O					Active		4.99				5.49	0.31			
COc1ccc(/C=C/c2cc(OC)cc(OC)c2)cc1 [TRISMETHOXYRESVERATROL]	42%	inactive	Dose-dependent effect	34%			5.78	Non-toxic	Dose-dependent effect	inactive	5.91	0.74	19%		

Source: ChEMBL document CHEMBL3763065, “Anti-inflammatory and antioxidant properties of a novel resveratrol-salicylate hybrid analog” (Bioorg Med Chem Lett, 2016)
